Data published in PMC8904520, “Characterization of a small-molecule inhibitor targeting NEMO/IKKβ to suppress colorectal cancer growth” (Signal Transduction and Targeted Therapy, 2022).

Legend:
[1] = test system: colorectal cancer cells (LoVo, RKO, SW620, HCT15, HCT116); assay: CCK-8 cell viability assay, colorectal cancer cells; assay type: cell-based, human; settings: LoVo, RKO, SW620, HCT15, HCT116; 48 h
Experimental: Cell viability was determined using the CCK-8 assay. Briefly, 5×10³ cells were seeded into 96-well culture plates, allowed to adhere for overnight, and then changed to fresh medium containing various concentrations of SHK (0, 0.5, 1, 2 and 5 µM) dissolved in DMSO (final concentration, 0.1%). After incubation for 48 h, the CCK-8 reagent was added, and the absorbance was measured at 450 nm using an EnSpire® Multimode Plate Reader (Perkin Elmer, USA). The cell viability in the vehicle control groups was defined as 100%. Each assay was carried out in triplicate.

[2] = biological target: T1, NEMO/IKKβ complex (Homo sapiens, UniProt O14920+Q9Y6K9); assay: Co-immunoprecipitation of NEMO/IKKβ; settings: pre-formed complex, Co-IP
T1 construct: expressed in transfected cells; host or cells: HEK293T
T1 sequence (Q9Y6K9 1-196): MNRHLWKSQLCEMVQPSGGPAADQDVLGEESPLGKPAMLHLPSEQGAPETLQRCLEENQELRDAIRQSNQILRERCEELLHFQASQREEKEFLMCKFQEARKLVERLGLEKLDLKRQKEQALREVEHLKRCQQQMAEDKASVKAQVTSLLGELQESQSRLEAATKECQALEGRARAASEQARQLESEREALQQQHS
T1 sequence (O14920 701-745): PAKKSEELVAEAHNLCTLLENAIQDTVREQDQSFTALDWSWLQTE
Experimental: The pre-cleared cell lysates were incubated with an anti-HA antibody on a rotating platform at 4 °C for 2 h, and then incubated for another 6 h with protein A/G-sepharose beads. The sepharose beads were washed three times with binding buffer, mixed with gel loading buffer and boiled for 5 min. The samples were centrifuged and the supernatants were used for western blot analysis. A specific antibody against the Flag-tag was applied for the detection of proteins.
The IKKβ and NEMO expression vectors were constructed by subcloning the full-length cDNA to pENTER-4T1 expression vector (Flag- or HA-tagged) developed by ViGene Biosciences, as described previously.[25] The 293T cells (1 × 10^6) were plated into 60 mm dishes for 1 day, and then transfected with the relevant plasmids encoding HA-IKKβ and Flag-NEMO using Lipofectamine 2000 transfection reagent (Invitrogen). After transfection, the cells were cultured for another 24 h. Subsequently, the transfected cells were trypsinized and seeded into 60 mm dishes, followed by culturing with fresh medium containing the indicated doses of SHK for 48 h, and then collected for the Co-IP assay.

SMILES | growth inhibition of cancer cell lines [1] | ability to destabilize the NEMO/IKKβ complex [2]
CC(C)=CCCC1=CC(=O)c2c(O)ccc(O)c2C1=O [DSHK, deoxyshikonin] | only slight growth inhibition | lost the ability to destabilize the NEMO/IKKβ complex
COC(CC=C(C)C)C1=CC(=O)c2c(O)ccc(O)c2C1=O (stereo not drawn) [MSHK, methylshikonin] | only slight growth inhibition | lost the ability to destabilize the NEMO/IKKβ complex
CC(=O)O[C@H](CC=C(C)C)C1=CC(=O)c2c(O)ccc(O)c2C1=O [ASHK, acetyl shikonin] | only slight growth inhibition | lost the ability to destabilize the NEMO/IKKβ complex
